Key:
Test in all cases: KINOMEscan
Type in all cases: binding
Conditions in all cases: read-out: % Ctrl
PAK6 = biological target: T1, PAK6 (Homo sapiens, UniProt Q9NQU5)
T1 construct: purchased DiscoveRx KINOMEscan

HASPIN = biological target: T2, HASPIN (Homo sapiens, UniProt Q8TF76); set-up: purchased DiscoveRx KINOMEscan
T2 sequence (Q8TF76 1-798): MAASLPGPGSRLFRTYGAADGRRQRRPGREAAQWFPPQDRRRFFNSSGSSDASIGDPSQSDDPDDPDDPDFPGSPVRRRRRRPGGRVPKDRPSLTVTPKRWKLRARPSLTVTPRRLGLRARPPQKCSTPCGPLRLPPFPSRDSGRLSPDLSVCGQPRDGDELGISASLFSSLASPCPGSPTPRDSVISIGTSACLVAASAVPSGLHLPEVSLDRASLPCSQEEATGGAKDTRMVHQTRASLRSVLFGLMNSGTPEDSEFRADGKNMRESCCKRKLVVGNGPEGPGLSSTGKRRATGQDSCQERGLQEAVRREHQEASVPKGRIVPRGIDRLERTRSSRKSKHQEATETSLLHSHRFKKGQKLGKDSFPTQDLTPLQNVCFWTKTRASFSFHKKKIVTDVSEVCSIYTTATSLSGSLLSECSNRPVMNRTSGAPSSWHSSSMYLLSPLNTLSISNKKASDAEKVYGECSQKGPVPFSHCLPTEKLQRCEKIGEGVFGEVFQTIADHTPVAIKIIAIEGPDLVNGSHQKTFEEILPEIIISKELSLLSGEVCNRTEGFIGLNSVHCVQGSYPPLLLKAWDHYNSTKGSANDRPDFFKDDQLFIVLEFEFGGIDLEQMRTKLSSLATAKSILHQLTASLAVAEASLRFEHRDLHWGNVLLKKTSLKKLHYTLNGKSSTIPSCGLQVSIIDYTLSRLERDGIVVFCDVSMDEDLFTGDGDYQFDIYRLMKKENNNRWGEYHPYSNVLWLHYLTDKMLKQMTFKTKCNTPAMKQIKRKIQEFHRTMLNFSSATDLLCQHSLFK

PRKD2 = biological target: T3, PRKD2 (Homo sapiens, UniProt Q9BZL6)
T3 construct: purchased DiscoveRx KINOMEscan
T3 sequence (Q9BZL6 whole entry): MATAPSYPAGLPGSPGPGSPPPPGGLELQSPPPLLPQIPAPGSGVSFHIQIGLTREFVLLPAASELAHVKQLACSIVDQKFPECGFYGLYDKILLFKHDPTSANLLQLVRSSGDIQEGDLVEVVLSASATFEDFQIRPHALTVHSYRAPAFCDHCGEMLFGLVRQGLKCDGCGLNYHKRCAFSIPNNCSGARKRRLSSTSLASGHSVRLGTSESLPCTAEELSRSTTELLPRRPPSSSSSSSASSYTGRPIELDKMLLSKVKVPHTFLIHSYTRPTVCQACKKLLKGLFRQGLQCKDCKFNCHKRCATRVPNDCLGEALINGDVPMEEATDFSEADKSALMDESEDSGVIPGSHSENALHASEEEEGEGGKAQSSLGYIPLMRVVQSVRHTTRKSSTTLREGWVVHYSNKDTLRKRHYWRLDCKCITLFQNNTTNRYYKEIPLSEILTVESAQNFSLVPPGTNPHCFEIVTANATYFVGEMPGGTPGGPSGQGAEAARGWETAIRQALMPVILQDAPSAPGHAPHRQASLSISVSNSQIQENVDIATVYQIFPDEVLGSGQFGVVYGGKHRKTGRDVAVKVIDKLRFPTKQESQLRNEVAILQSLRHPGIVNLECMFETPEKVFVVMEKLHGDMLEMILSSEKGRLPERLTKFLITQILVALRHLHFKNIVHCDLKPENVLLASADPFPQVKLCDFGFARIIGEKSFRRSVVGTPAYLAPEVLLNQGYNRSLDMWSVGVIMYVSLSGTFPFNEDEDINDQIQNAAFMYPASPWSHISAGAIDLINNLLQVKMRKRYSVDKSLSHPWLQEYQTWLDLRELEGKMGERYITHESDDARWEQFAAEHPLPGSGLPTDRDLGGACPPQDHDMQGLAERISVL

MLK2 = biological target: T4, MLK2 (Homo sapiens, UniProt Q02779)
T4 construct: purchased DiscoveRx KINOMEscan

ERK4 = biological target: T5, ERK4 (Homo sapiens, UniProt P31152)
T5 construct: purchased DiscoveRx KINOMEscan
T5 sequence (P31152 whole entry): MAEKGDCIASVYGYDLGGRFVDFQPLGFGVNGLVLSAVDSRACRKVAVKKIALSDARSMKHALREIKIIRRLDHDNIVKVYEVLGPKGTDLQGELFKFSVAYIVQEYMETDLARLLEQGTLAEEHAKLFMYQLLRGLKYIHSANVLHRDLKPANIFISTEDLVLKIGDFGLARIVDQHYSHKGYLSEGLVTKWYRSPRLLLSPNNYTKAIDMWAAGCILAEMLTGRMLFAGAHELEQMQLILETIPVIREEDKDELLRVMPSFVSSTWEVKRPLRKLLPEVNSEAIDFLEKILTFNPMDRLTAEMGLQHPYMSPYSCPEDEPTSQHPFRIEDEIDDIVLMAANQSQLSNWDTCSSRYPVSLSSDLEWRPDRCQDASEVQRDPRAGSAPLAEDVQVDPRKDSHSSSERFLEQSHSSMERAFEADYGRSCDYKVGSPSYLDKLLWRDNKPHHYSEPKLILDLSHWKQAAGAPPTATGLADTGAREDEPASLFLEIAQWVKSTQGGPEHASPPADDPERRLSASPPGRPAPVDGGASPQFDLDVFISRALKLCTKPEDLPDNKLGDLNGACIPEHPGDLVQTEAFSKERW

SIK = biological target: T6, SIK (Homo sapiens, UniProt P57059)
T6 construct: purchased DiscoveRx KINOMEscan
T6 sequence (P57059 whole entry): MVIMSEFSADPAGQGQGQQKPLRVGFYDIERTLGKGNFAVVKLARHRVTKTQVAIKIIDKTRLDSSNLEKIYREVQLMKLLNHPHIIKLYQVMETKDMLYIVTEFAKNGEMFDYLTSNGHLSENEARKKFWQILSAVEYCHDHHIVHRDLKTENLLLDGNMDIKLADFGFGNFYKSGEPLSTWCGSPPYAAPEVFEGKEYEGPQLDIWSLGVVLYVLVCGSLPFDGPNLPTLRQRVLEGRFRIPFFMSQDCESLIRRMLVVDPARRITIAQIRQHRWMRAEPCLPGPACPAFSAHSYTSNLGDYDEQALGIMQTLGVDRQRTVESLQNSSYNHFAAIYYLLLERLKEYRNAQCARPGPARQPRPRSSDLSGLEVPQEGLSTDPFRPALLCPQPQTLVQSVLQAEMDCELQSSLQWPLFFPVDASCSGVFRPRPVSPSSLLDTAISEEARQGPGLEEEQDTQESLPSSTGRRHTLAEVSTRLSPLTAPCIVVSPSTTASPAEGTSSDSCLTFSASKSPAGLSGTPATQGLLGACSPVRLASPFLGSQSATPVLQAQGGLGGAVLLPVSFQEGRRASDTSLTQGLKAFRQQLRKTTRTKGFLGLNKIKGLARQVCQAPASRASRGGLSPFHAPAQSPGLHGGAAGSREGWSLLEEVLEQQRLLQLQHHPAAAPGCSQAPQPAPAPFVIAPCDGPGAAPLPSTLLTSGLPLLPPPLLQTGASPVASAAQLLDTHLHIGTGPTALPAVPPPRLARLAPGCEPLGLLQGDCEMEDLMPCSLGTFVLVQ

RSK3(KD1-N-t.) = biological target: T7, RSK3(KD1-N-t.) (Homo sapiens, UniProt Q15349)
T7 construct: RSK3(KD1-N-t.); purchased DiscoveRx KINOMEscan
T7 sequence (Q15349 1-388 limits assumed): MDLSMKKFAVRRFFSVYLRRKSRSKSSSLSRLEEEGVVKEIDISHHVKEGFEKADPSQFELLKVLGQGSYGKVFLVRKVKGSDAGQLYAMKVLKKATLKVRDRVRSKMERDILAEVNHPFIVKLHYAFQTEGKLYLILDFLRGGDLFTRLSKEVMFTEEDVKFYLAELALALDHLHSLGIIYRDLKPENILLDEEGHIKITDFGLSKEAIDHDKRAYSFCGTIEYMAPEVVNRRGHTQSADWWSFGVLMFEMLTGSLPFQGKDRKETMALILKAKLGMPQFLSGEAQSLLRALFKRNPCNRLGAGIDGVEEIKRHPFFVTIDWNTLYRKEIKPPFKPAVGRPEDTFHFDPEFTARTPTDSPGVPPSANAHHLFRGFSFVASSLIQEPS

SBK1 = biological target: T8, SBK1 (Homo sapiens, UniProt Q52WX2)
T8 construct: purchased DiscoveRx KINOMEscan
T8 sequence (Q52WX2 whole entry): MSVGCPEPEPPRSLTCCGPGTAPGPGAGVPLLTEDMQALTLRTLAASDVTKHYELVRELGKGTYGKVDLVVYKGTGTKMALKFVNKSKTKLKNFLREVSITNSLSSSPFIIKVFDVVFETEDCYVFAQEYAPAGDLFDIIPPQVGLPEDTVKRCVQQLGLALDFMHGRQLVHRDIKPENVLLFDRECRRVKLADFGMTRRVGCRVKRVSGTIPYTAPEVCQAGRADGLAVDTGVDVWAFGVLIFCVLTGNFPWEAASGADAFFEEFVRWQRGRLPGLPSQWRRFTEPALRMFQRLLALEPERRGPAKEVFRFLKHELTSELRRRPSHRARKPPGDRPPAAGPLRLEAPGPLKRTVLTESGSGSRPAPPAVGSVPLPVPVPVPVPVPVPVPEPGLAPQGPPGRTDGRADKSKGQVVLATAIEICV

EPHB4 = biological target: T9, EPHB4 (Homo sapiens, UniProt P54760)
T9 construct: purchased DiscoveRx KINOMEscan

TRKA = biological target: T10, TRKA (Homo sapiens, UniProt P04629)
T10 construct: purchased DiscoveRx KINOMEscan

PKN2 = biological target: T11, PKN2 (Homo sapiens, UniProt Q16513)
T11 construct: purchased DiscoveRx KINOMEscan

LOK = biological target: T12, LOK (Homo sapiens, UniProt O94804)
T12 construct: purchased DiscoveRx KINOMEscan

TNK2 = biological target: T13, TNK2 (Homo sapiens, UniProt Q07912)
T13 construct: purchased DiscoveRx KINOMEscan
T13 sequence (Q07912 whole entry): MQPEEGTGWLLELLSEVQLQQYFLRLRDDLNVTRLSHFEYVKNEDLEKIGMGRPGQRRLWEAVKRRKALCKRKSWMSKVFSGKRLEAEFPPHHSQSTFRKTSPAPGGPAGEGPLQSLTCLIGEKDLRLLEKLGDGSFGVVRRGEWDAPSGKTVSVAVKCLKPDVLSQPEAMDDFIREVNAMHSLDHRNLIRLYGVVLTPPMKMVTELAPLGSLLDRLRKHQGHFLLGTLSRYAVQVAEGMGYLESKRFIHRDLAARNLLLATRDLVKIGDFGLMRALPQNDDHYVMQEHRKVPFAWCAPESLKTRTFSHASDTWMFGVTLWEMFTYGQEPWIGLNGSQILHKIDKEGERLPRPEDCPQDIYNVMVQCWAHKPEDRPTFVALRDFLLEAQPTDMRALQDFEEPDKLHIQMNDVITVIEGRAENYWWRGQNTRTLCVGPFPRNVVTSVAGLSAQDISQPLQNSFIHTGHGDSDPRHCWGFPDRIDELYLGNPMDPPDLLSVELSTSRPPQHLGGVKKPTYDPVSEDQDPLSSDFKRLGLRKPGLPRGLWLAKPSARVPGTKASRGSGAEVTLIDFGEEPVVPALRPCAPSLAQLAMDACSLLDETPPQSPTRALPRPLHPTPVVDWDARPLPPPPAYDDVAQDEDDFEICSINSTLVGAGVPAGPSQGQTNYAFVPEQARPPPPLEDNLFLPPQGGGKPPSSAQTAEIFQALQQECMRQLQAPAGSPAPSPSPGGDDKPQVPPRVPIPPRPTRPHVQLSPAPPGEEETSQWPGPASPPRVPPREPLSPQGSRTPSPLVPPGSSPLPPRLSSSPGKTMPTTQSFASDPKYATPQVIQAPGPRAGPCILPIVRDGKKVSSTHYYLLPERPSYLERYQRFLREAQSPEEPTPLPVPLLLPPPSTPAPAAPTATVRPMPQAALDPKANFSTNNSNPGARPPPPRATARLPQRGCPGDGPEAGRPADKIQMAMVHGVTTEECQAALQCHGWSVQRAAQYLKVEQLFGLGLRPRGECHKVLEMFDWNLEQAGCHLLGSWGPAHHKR

FLT3(K663Q) = biological target: T14, FLT3(K663Q) (Homo sapiens, UniProt P36888, K663Q)
T14 construct: purchased DiscoveRx KINOMEscan

MELK = biological target: T15, MELK (Homo sapiens, UniProt Q14680)
T15 construct: purchased DiscoveRx KINOMEscan

PAK7 = biological target: T16, PAK7 (Homo sapiens, UniProt Q9P286)
T16 construct: purchased DiscoveRx KINOMEscan

CDK3 = biological target: T17, CDK3 (Homo sapiens, UniProt Q00526)
T17 construct: purchased DiscoveRx KINOMEscan
T17 sequence (Q00526 whole entry): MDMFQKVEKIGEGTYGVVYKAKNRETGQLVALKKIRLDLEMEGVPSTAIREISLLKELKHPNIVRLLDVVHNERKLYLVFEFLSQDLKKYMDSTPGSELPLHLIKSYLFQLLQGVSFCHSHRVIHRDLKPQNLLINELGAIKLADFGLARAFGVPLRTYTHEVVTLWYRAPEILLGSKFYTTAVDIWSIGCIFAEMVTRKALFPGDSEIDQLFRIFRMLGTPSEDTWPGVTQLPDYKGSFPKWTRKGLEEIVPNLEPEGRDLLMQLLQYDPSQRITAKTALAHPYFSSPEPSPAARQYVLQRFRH

CN1CCC(CNc2ccc3ncc(C(=O)Nc4cccc(OC(F)(F)F)c4)n3n2)CC1 [Cpd 2]
remaining binding at 1 µM (PAK6): 98%
remaining binding at 1 µM (HASPIN): 30%
remaining binding at 1 µM (PRKD2): 87%
remaining binding at 1 µM (MLK2): 100%
remaining binding at 1 µM (ERK4): 100%
remaining binding at 1 µM (SIK): 99%
remaining binding at 1 µM (RSK3(KD1-N-t.)): 93%
remaining binding at 1 µM (SBK1): 100%
remaining binding at 1 µM (EPHB4): 93%
remaining binding at 1 µM (TRKA): 82%
remaining binding at 1 µM (PKN2): 79%
remaining binding at 1 µM (LOK): 90%
remaining binding at 1 µM (TNK2): 99%
remaining binding at 1 µM (FLT3(K663Q)): 92%
remaining binding at 1 µM (MELK): 100%
remaining binding at 1 µM (PAK7): 90%
remaining binding at 1 µM (CDK3): 85%

Reference: paper PMC7407272, “Induction of Lysosome Membrane Permeabilization as a Therapeutic Strategy to Target Pancreatic Cancer Stem Cells” (Cancers, 2020)
